Measured values published in patent US8637657B2, “Siderophore-mediated iron uptake in bacterial infection” (priority 2008, dated 2014).
“Also recorded” adds a separate entry of the source.

Columns and labels:
S. aureus SbnB mutant = assay type: cell-based; details: compound added to growth media
Experimental: (§1) Using SbnA and SbnB mutants in growth culture assays, compounds were added to the growth media and tested for the ability to overcome the iron-restricted phenotype.

S. aureus SbnA mutant = experiment: growth culture assay, compounds added to overcome iron-restricted growth defect of SbnA mutant; assay type: cell-based; details: compound added to growth media; data not shown
Experimental: as §1

wildtype S. aureus = experiment: disc growth assay with cell-free synthesized staphyloferrin A, wildtype; assay type: cell-based; details: paper disk on agar plate, 37° C. for 24 hours
Experimental: (§2) Growth radius was measured around the disc after incubation of plates at 37° C. for 24 hours.

SirA mutant = experiment: disc growth assay with cell-free synthesized staphyloferrin A, SirA mutant; assay type: cell-based, S. aureus; details: paper disk on agar plate, 37° C. for 24 hours
Experimental: as §2

Hts mutant = experiment: disc growth assay with cell-free synthesized staphyloferrin A, Hts mutant; assay type: cell-based, S. aureus; details: paper disk on agar plate, 37° C. for 24 hours
Experimental: as §2

HtsSir mutant = experiment: disc growth assay with cell-free synthesized staphyloferrin A, HtsSir mutant; assay type: cell-based, S. aureus; details: paper disk on agar plate, 37° C. for 24 hours
Experimental: as §2

SbnE = molecular target: T1, SbnE (Staphylococcus aureus, UniProt Q2G1M9); experiment: hydroxylamine trapping (hydroxamate formation) assay, SbnE; assay type: biochemical, S. aureus; details: 5 μM enzyme, 3 mM substrate
T1 construct: 6xHis; made in house; host or cells: E. coli BL21 (DE3)
Experimental: All reactions were performed in 300 μL volumes and the following were common to each reaction: 2.25 mM ATP, 15 mM MgCl2, 150 mM hydroxylamine, and 50 mM HEPES pH 7.4. […] The supernatant which now contains the citryl-Dae intermediate was incubated with fresh 5 μM SbnF or SbnC, 2.25 mM ATP, and 150 mM hydroxylamine. To assess the potential recognition of citryl-Dap as a substrate for SbnF or SbnC, this intermediate was formed as described above except that Dae was replaced with 50 mM Dap instead. For each reaction, a duplicate control reaction was prepared in which the enzyme was previously inactivated by heating at 100° C. for 10 minutes. All reactions described above were incubated at room temperature in the dark for 1 hour before addition of 300 μL stopping solution which consisted of 10% (w/v) FeCl3 and 3.3% (w/v) trichloroacetic acid in 0.7 M HCl. Reactions were centrifuged at 20 000×g for 5 minutes to remove precipitate and the formation of ferric hydroxamate was detected spectrophotometrically at 540 nm. Relative absorbance values reported in this study were calculated by subtracting the absorbance of the control (boiled enzyme) reactions from the absorbance of experimental reactions.
Essentially, this assay is used to monitor the specific activity of a synthetase towards a particular carboxylic acid.

SbnF = molecular target: T2, SbnF (Staphylococcus aureus, UniProt Q2G1M8); experiment: hydroxylamine trapping (hydroxamate formation) assay, SbnF; assay type: biochemical, S. aureus; details: 5 μM enzyme
T2 construct: 6xHis; made in house; host or cells: E. coli BL21 (DE3)
T2 sequence (Q2G1M8 25-616 limits assumed): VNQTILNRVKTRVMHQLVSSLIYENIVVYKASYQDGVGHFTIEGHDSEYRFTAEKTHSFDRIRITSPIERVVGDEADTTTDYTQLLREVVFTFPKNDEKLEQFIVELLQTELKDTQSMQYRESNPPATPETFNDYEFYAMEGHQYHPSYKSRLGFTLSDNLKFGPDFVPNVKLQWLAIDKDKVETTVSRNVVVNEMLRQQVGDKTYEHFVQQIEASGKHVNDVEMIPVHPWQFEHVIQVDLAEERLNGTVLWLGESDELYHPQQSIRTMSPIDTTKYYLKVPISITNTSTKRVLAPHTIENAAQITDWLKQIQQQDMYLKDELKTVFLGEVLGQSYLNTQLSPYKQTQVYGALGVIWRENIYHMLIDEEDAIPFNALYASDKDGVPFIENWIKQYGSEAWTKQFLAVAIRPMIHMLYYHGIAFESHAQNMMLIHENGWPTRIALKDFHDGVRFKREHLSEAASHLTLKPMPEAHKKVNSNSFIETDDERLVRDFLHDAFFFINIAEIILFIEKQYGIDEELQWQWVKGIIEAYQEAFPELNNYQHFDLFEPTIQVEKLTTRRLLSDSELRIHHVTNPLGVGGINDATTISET
Experimental: All reactions were performed in 300 μL volumes and the following were common to each reaction: 2.25 mM ATP, 15 mM MgCl2, 150 mM hydroxylamine, and 50 mM HEPES pH 7.4. […] Similarly, to assess which enzyme utilized α-KG as a substrate, 5 μM of SbnC, SbnE, or SbnF were incubated with 3 mM α-KG and the common reaction components. […] This reaction was then heat treated at 70° C. to deactivate SbnE and the reaction was then centrifuged at 14 500 rpm for 10 minutes to pellet precipitated enzyme. The supernatant which now contains the citryl-Dae intermediate was incubated with fresh 5 μM SbnF or SbnC, 2.25 mM ATP, and 150 mM hydroxylamine. To assess the potential recognition of citryl-Dap as a substrate for SbnF or SbnC, this intermediate was formed as described above except that Dae was replaced with 50 mM Dap instead. For each reaction, a duplicate control reaction was prepared in which the enzyme was previously inactivated by heating at 100° C. for 10 minutes. All reactions described above were incubated at room temperature in the dark for 1 hour before addition of 300 μL stopping solution which consisted of 10% (w/v) FeCl3 and 3.3% (w/v) trichloroacetic acid in 0.7 M HCl. Reactions were centrifuged at 20 000×g for 5 minutes to remove precipitate and the formation of ferric hydroxamate was detected spectrophotometrically at 540 nm. Relative absorbance values reported in this study were calculated by subtracting the absorbance of the control (boiled enzyme) reactions from the absorbance of experimental reactions.

HtsA = experiment: heme binding to purified HtsA (absorption spectra); set-up: species or system S. aureus; details: in comparison to IsdE
From the text: FIG. 10 illustrates the absorption spectra of purified IsdE, HtsA and SirA proteins in the absence of heme (A) and on exposure to heme (B);
In liquid growth assays, no attenuation of the htsABC deletion mutant, H1665, when grown on heme as a sole iron source (data not shown) was observed.

[1] = test system: siderophore-deficient S. aureus (ΔsfaΔsbn); experiment: iron-starved growth of siderophore-deficient S. aureus with in vitro synthesized staphyloferrin B; assay type: cell-based; details: enzymatic reaction material from complete reactions, increasing amounts
Experimental: Bacteria were cultured for 12 hours in TMS broth then 12 hours in TMS broth containing 100 μM 2,2′-dipyridyl (Sigma-Aldrich). Cells were washed twice in saline, and diluted 1:100 into 60% horse serum (Sigma-Aldrich)—40% TMS broth. For iron-replete media, 50 μM FeCl3 was included. Cultures were grown under constant, medium amplitude shaking in a Bioscreen C machine (Growth Curves, USA). Optical density was measured at 600 nm every 30 min. However, for clarity of growth curve figures, data are shown only at 2-hour intervals.
This staphyloferrin B-dependent growth promotion was mediated by the ABC transporter SirABC (FIG. 14B), which is encoded by the sirABC operon divergently transcribed from the sbn operon (FIG. 13A).

SbnC = molecular target: T3, SbnC (Staphylococcus aureus, UniProt Q2G1N1); experiment: hydroxylamine trapping (hydroxamate formation) assay, SbnC; assay type: biochemical, S. aureus; details: 5 μM enzyme, 3 mM substrate
T3 construct: 6xHis; made in house; host or cells: E. coli BL21 (DE3)
T3 sequence (Q2G1N1 1-584): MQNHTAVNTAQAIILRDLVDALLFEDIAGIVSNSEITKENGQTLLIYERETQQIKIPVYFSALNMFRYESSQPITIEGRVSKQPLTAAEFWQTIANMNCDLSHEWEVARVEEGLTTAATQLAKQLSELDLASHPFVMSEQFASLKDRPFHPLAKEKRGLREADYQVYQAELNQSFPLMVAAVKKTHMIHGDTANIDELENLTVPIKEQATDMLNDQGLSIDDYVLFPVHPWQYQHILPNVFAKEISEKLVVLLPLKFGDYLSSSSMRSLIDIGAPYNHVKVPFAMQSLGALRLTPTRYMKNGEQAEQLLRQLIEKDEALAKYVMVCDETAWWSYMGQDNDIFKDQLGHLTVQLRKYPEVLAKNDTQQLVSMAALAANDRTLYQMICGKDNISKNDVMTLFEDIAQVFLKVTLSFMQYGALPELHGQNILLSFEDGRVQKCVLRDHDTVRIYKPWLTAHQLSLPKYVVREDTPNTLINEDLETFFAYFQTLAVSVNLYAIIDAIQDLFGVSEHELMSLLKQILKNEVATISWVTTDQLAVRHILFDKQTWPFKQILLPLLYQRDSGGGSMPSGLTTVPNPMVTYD
Experimental: To assess the potential recognition of citryl-Dap as a substrate for SbnF or SbnC, this intermediate was formed as described above except that Dae was replaced with 50 mM Dap instead. For each reaction, a duplicate control reaction was prepared in which the enzyme was previously inactivated by heating at 100° C. for 10 minutes. All reactions described above were incubated at room temperature in the dark for 1 hour before addition of 300 μL stopping solution which consisted of 10% (w/v) FeCl3 and 3.3% (w/v) trichloroacetic acid in 0.7 M HCl. Reactions were centrifuged at 20 000×g for 5 minutes to remove precipitate and the formation of ferric hydroxamate was detected spectrophotometrically at 540 nm. Relative absorbance values reported in this study were calculated by subtracting the absorbance of the control (boiled enzyme) reactions from the absorbance of experimental reactions.

[2] = chrome azurol S (CAS) assay of iron chelating / siderophore activity; details: SbnE reaction product
From the text: Strains of S. aureus containing complete sbn operon deletions (i.e. deleted for all of sbnA through sbnI genes) were constructed. In S. aureus Newman background, the sbn deletion strain was called H1331 whereas in RN6390 background, it was called H1324. […] Supplementation of serum growth media with iron obviated the growth defect of H1331 (FIG. 1, inset), and suppressed siderophore production in both Newman and H1331 (FIG. 2). […] To ensure that this was not due to a strain-specific phenomenon, all experiments described above were repeated using instead the RN6390 genetic background (i.e. RN6390 vs. H1324). Equivalent results were obtained (data not shown).
To measure levels of siderophore activity, chrome azurol S (CAS) shuttle solution was prepared as described. In the case of in vitro synthesized staphyloferrin B, 50 μL of the reaction mixture were removed and diluted in 450 μL of deionized water followed by 500 μL of CAS shuttle solution in a 1 ml spectrophotometer cuvette. The mixture was then incubated in the dark for 45 minutes. Siderophore quantification and absorbance readings were performed as described (Beasley et al., 2009).

S. aureus = experiment: promotion of iron-starved growth of S. aureus; assay type: cell-based; details: SbnE reaction product; data not shown
Experimental: Siderophore plate bioassays were performed as described (Beasley et al., 2009). Growth promotion, as measured by the diameter of the growth halo around each disk, was determined after 36 h incubation at 37° C.

T1 sequence (Q2G1M9 whole entry): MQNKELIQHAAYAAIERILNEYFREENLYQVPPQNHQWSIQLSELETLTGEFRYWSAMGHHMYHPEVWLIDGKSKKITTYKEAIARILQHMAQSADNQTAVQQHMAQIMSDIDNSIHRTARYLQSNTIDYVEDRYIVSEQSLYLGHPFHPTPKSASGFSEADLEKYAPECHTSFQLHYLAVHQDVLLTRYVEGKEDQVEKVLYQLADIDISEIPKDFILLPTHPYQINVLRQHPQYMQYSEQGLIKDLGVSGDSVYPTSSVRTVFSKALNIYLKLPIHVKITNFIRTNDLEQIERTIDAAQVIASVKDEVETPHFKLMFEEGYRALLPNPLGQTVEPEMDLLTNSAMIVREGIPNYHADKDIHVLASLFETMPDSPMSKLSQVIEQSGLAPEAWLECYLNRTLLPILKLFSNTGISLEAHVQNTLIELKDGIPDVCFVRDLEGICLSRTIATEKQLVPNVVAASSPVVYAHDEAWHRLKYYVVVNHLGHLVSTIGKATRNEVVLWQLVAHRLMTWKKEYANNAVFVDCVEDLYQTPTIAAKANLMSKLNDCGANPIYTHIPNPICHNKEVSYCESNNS

SMILES: NCC(N)C(=O)O (stereo not drawn) [2,3-diamonpropionate, 2,3-diaminopropionate]
- overcoming the iron-restricted growth defect of the SbnB mutant (S. aureus SbnB mutant): can be overcome
- overcoming the iron-restricted growth defect of the SbnA mutant (S. aureus SbnA mutant): can be overcome

SMILES: O=C(O)CC(O)(CC(=O)NCCC[C@@H](NC(=O)CC(O)(CC(=O)O)C(=O)O)C(=O)O)C(=O)O (stereo partly drawn) [Staphyloferrin A, staphyloferrin A]
- growth promotion of wildtype S. aureus (wildtype S. aureus): promoted growth
- growth promotion of SirA mutant (SirA mutant): promoted growth
- growth promotion of Hts mutant (Hts mutant): did not promote growth
- growth promotion of HtsSir mutant (HtsSir mutant): did not promote growth

SMILES: O=C(O)CC(O)(CC(=O)O)C(=O)O [citrate]
- activity of SbnE towards carboxylic acid substrate (SbnE): high level of specific activity
- activity of SbnF towards carboxylic acid substrate (SbnF): small level of activity

SMILES: NCCNC(=O)CC(O)(CC(=O)O)C(=O)O (stereo not drawn) [citryl-Dae]
- activity of SbnF towards carboxylic acid substrate (SbnF): high levels of activity

SMILES: C=CC1=C(C)c2cc3[n-]c(cc4[n-]c(cc5nc(cc1n2)C(C)=C5C=C)c(C)c4CCC(=O)O)c(CCC(=O)O)c3C.[Fe+2] [heme]
- heme association with purified HtsA (HtsA): little to no heme would associate

SMILES: O=C(O)[C@@H]1CCCN1 [proline]
- overcoming the iron-restricted growth defect of the SbnB mutant (S. aureus SbnB mutant): unable to overcome

SMILES: N[C@@H](CNC(=O)C[C@@](O)(CC(=O)NCCNC(=O)CCC(=O)C(=O)O)C(=O)O)C(=O)O [staphyloferrin B]
- promotion of iron-starved growth of siderophore-deficient S. aureus (ΔsfaΔsbn) [1]: readily promote the iron-starved growth; also recorded: reaching levels comparable to growth in the presence of iron

SMILES: O=C(O)CCC(=O)C(=O)O [α-KG, α-ketoglutarate]
- activity of SbnE towards carboxylic acid substrate (SbnE): not
- activity of SbnF towards carboxylic acid substrate (SbnF): not
- activity of SbnC towards carboxylic acid substrate (SbnC): activates

SMILES: NC(CNC(=O)CC(O)(CC(=O)O)C(=O)O)C(=O)O (stereo not drawn) [β-citryl-Dap intermediate]
- reaction with CAS reagent [2]: reacted strongly
- promotion of iron-starved growth of S. aureus (S. aureus): unable to promote
- activity of SbnF towards carboxylic acid substrate (SbnF): did not react
